From patent US7417026B2, “Mobilization of hematopoietic cells” (Children's Hospital Medical Center, priority 2003, dated 2008) come the findings set out here.

Assay [1] concerns HSC/progenitor cells. As to the kind of experiment: Mobilization of progenitor cells into peripheral blood, normal mice. The format is in vivo. The following applies: intraperitoneal injection, three doses. Here is the method: In FIG. 4, NSC23776, an inhibitor of GEF interaction with Rac proteins, or PBS as a control was administered by intraperitoneal injection to normal mice. At the indicated time points after injection, mice were bled and analyzed for the number of progenitor cells in the peripheral blood. Three doses of drug were administered. Each point represents samples from 6 mice, mean +/− SEM.

Assay [2] deals with HSC/progenitor cells. Nature of the assay: Mobilization of progenitor cells into peripheral blood, Rac2-/- mice. The format is in vivo. Conditions: intraperitoneal injection, three doses. How it is done: In FIG. 5, NSC23776 or PBS as a control was administered by intraperitoneal injection to normal mice and mice with a genetic deficiency of Rac2 (Rac2−/− mice). At the indicated time points after injection, mice were bled and analyzed for the number of progenitor cells in the peripheral blood. Three doses of drug were administered. Each point represents samples from 6 mice, mean +/− SEM. For information on how to make and use NSC23776 and other small molecule inhibitors, see copending U.S. Provisional application 60/523,599, filed Nov. 20, 2003.

Assay [3] has as its system WT HSC/P cells. Nature of the assay: Cell cycle analysis of HSC/P after SCF stimulation (cells in S+G2/M). The format is cell-based, mice. The following applies: 30 μM. Here is the method: To further analyze the mechanism, by which Rac1 affects proliferation in primitive HSC/P cells, cell cycle analysis was performed after stimulation with 100 ng/ml SCF. […] In contrast, the number of Rac2−/− cells in S+G2/M phases was similar to WT cells. The delay in entry into S phase was significant by 24 hours after SCF addition and persisted at 48 hours. This defect in cell cycle progression appeared directly related to Rac1 deficiency, since expression of Rac1 protein using retrovirus-mediated gene transfer restored cycle progression in Rac1−/− cells [33+4 vs. 19+3 vs. 34+3; % cells in S+G2/M, WT vs. Rac1−/− vs. Rac1−/− (Rac1+), p<0.01 Rac1−/− vs. Rac1−/− (Rac1+)].

The test system of assay [4] is WT HSC/P cells. Nature of the assay: Apoptosis of HSC/P following SCF stimulation (Annexin-V). Format: cell-based, mice. Conditions: concentration not given. The source says: By contrast, Rac2 appears to play no role in proliferation but regulated cell survival through the known anti-apoptotic protein Akt (Kennedy, et al. Genes Dev. 11, 701-13, 1997). Rac2 but not Rac1 deficiency was associated with increased frequency of both early (Annexin-V+) and late (Annexin V+/7AAD+) apoptotic cells (FIG. 2F) and expression of the Rac2 cDNA in Rac2−/− HSC/P led to a complete reversal of the apoptotic phenotype [4.4+0.8 vs. 6.6+1.3, vs. 3.1+0.7; % Annexin-V+ cells, WT vs. Rac2−/− vs. Rac−/− (Rac2+); p<0.01 Rac2−/− vs. Rac2−/− (Rac2+)]. Loss of both Rac1 and Rac2 activities was associated with a more severe apoptotic phenotype compared with deficiency of only Rac2 GTPase activity (FIG. 2D). […] The reduced Akt activation was close to normal in Rac1−/− cells.

The test system of assay [5] is WT neutrophils. Conditions: 10 μM.
Description: (§2) It was next determined whether, in a manner similar to HSC/P, p42/p44 MAPKs were regulated via Rac proteins in neutrophils.
In assay [6] the test system is WT neutrophils. Conditions: 10 μM. This is another data set of the same source.
Description: Neutrophil chemotaxis in response to 10 μM formyl-methionyl-leucyl-phenylalanine (fMLP) was examined in Boyden chamber assays.
The test system of assay [7] is WT neutrophils. The following applies: 10 μM. The source holds these as a separate data set.
Description: as §2
In assay [8] the test system is ERK. Conditions: HSC/P cells, 30 μM.
Assay [9] deals with p42/p44. Conditions: neutrophils, 10 μM.
Description: as §2
The target of assay [10] is T1, RhoA-F30L (Homo sapiens, UniProt P61586, F30L).
T1 construct: expressed in transfected cells
T1 sequence (P61586 whole entry F30L): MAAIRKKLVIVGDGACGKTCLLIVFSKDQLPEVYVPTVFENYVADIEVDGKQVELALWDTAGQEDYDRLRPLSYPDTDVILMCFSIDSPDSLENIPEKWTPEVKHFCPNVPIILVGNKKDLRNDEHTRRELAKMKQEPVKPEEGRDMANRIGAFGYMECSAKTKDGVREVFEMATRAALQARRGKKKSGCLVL
Nature of the assay: Downregulation of RhoA-F30L biochemical activity by retrovirally expressed RhoGAP chimera. The format is cell-based. The following applies: for biochemical activity of F30LRhoA: high copy number retroviral vector SF91-EMCV-IRES-GFP. From the text:
(§1) Like other cases of retrovirus-based gene transfer approach, the copy number of the introduced RhoGAP-Rho chimeras in the host cells will likely to be important for the efficacy of their application.

For assay [11], the target named is T1, RhoA-F30L. Nature of the assay: RhoA-F30L-induced transformation. Conditions: for RhoA-F30L-induced transformation: high copy number retroviral vector SF91-EMCV-IRES-GFP. Format: cell-based.
Description: as §1

Regarding `CCN(CC)CCCC(C)Nc1nc(C)cc(Nc2ccc3nc(C)cc(N)c3c2)n1` (stereo not drawn) [NSC23776], the “mobilization of HSC/progenitor cells” value in assay [1] is recorded as “does indeed lead to mobilization”; in assay [2], “additive effect”.

In the case of `N#CC(=C(/N)Sc1ccccc1N)/C(C#N)=C(\N)Sc1ccccc1N` [U0126], the “number of cells in S+G2/M” value in assay [3] was “significant reduction”. Also, the increase in apoptosis entry in [4] is on record as “An increase in apoptosis was not seen”. Also, the “percentage of NBT+ cells” value in assay [5] is recorded as “no change”. Also, in assay [6], the cell migration entry is given as “significant decrease”. Besides, the cortical actin formation result in assay [7] was “impaired cortical actin formation”. In addition, the ERK activation result in assay [8] is given as “inhibited”. Moreover, the “phosphorylation of p42/p44” value in assay [9] was “abrogates”.

In the case of “p190: GAP-containing protein fraction of human p190, the predominant GAP for RhoA, expressed alone”, the “biochemical activity of F30LRhoA” value in assay [10] was “did not affect”. The RhoA-F30L-induced transformation result in assay [11] is reported as “did not affect”.

B1: p190-RhoA-C: p190GAP fused with the RhoA C-terminal sequence, expressed from a retroviral vector (protein)
chain: VPLTTVVTPEKPIPIFIERCIEYIEATGLSTEGIYRVSGNKSEMESLQRQFDQDHNLDLAEKDFTVNTVAGAMKSFFSELPDPLVPYSMQIDLVEAHKINDREQKLHALKEVLKKFPKENHEVFKYVISHLNRVSHNNKVNLMTSENLSICFWPTLMRPDFSSMDALTATRSYQTIIELFIQQCPFFFYNRPISEPPGAALAPLQPWHPLSPSSPLHLLPVSHHLPSHLLQPLSPQCSHCSPLSSKPNTRCEPPQPRKQENQLSSLQARRGKKKSGCLVL
modifications: chimeric fusion peptide/p190RhoGAP plus c-terminus tail section of the targeted GTPase
On to B1, for which the “biochemical activity of RhoA-F30L” value in [10] (expression with MIEG3) is on record as “insufficient”. Besides, the “biochemical activity of F30LRhoA” value in assay [10] is listed as “specifically decrease”. In [11] (expression with MIEG3), the “transforming activity of RhoA-F30L” value is “insufficient”. In assay [11], the RhoA-F30L-induced transformation result is listed as “specifically decrease”.
